Counter-ions that a name gives are not always drawn.
Assays:
[1] = target: T1, human cloned 5-HT1A receptors (Homo sapiens, UniProt P08908); assay: 5-HT1A Receptor Binding Assay ([3H]8-OH-DPAT, CHO cell membranes); settings: 0.25 nM [3H]8-OH-DPAT, 27° C., 1 h; read-out: Receptor Binding (IC50 nM, SEM)
T1 construct: purchased NEN (manufactured by Biosignal, Inc., Montreal, Canada); host or cells: CHO cells
T1 sequence (P08908 1-422): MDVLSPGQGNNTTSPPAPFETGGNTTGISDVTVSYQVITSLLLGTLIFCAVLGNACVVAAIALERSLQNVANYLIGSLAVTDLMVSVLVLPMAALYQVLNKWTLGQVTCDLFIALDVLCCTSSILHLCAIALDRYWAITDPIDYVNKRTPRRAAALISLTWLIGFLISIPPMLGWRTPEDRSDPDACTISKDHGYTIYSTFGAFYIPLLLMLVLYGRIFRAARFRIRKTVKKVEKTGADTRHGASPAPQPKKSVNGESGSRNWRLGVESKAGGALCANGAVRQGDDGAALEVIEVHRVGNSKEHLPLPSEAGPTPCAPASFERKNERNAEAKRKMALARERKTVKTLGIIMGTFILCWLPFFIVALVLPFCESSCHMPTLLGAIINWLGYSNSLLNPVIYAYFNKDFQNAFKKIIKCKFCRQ
Experimental: 5-HT1A binding studies were performed with human cloned receptors expressed in Chinese hamster ovary (CHO) cells using (^3H)8-OH DPAT as the ligand. Membranes from Chinese hamster ovary cells (CHO) expressing cloned 5-HT1A receptors (manufactured for NEN by Biosignal, Inc., Montreal, Canada) were homogenized in approximately 40 volumes of 50 mM Tris pH 7.4 for 5 sec. Drug dilutions were made using a Beckman Biomek 2000 robot (Beckman Instruments, Fullerton, Calif.). Incubations were conducted with membrane prep, test compounds, and 0.25 nM [^3H]8-OH-DPAT (NEN, Boston, Mass.) in the same buffer at 27° C. for 1 h. Assays were terminated by rapid vacuum filtration over Whatman GF/B glass fiber filters pre-soaked in 0.3% polyethyleneimine. Bound radioactivity was measured using liquid scintillation spectrometry. Data were analyzed using non-linear curve fitting programs (Sharif et al., J. Pharmac. Pharmacol. 51:685-694, 1999).
Ligand binding studies can also be run using membrane preparations from calf and rat brain (local source) and human cortex membranes. Specific brain regions were dissected out, homogenized in 10 volumes of 0.32 M sucrose and centrifuged for 10 min at 700×g. […] Ki values were calculated using the Cheng-Prusoff equation (De Vry et al., J. Pharm. Exper. Ther. 284:1082-1094, 1998.)

[2] = system: retina (photo-oxidative injury); assay: Neuroprotective effects in the acute blue-light damage model in the rat (ERG); assay type: in vivo, Sprague Dawley rats; settings: for A-wave Amplitude Mean / B-wave Amplitude Mean: ERG after 5-day recovery
Experimental: Male Sprague Dawley rats were randomly assigned to vehicle treatment (N=15) or drug treatment (0.5 mg/kg [N=5] or 1 mg/kg [N=15]) experimental groups. Xaliproden hydrochloride or vehicle was administered by intraperitonal (IP) injection at 48, 24, and 0 hours prior to light exposure. Photo-oxidative injury to the retina was induced in dark-adapted rats (24 hours) by a 6-hour blue-light exposure (220 fc). Control rats (N=11) were housed in their home cage under normal cyclic light exposure. Rats were single housed in clear polycarbonate cages during this light exposure.
The electroretinogram (ERG) was recorded after a five day recovery period from dark-adapted anesthetized rats (Ketamine-HCl, 75 mg/Kg; Xylazine, 6 mg/Kg). The eye's electrical response to a flash of light was elicited by viewing a ganzfeld. ERGs to a series of light flashes increasing in intensity were digitized to analyze temporal characteristics of the waveform and determine the response voltage-log intensity (VlogI) relationship. Changes in the ERG a-wave are associated with photoreceptor and retinal pigment epithelium damage while damage to the inner retina is reflected in changes in the ERG b-wave.

5-HT1A receptors = target: T2, 5-HT1A receptors (UniProt P08908); assay: 5-HT1A Functional Assay (cAMP inhibition, forskolin-stimulated adenylate cyclase); settings: read-out: cAMP Inhibition (EC50)
T2 sequence (P08908 1-422): T1 sequence (P08908 1-422)
Experimental: HeLa cells transfected with recombinant human 5-HT1A receptors were grown to confluence in 24-well plates. The cells were rinsed with 1 ml of Hepes-buffered saline (in MM) NaCl 130, KCl 5.4, CaCl2, 1.8, MgSO4 0.8, NaH2PO4 0.9, glucose 25, Hepes 20, pH 7.4, and phenol red 5 mg/l. The cells were labelled with 6 μCi/ml of [^2-3H]adenine (23 Ci/mmol, Amersham, Rahn AG, Zurich, Switzerland) in 0.5 ml of saline at 37 ° C. for 2 hr. The plates were subsequently rinsed twice with 1 ml of buffered saline containing 1 mM isobutylmethylxanthine. The cells were incubated for 15 min in 1 ml of this solution (37° C.) in the presence or absence of 10 μM forskolin and the test compound. The buffer was then removed and 1 ml of 5% trichloroacetic acid (TCA) containing 0.1 mM cAMP and 0.1 mM ATP was added to extract the samples. […] Cyclic AMP production was calculated as the ratio [^3H]cAMP/([^3H]cAMP+[^3H]ATP).

[3] = 0.5 mg/kg IP at 48, 24, 0 h before 6-hour blue-light exposure
[4] = 1.0 mg/kg IP at 48, 24, 0 h before 6-hour blue-light exposure

For FC(F)(F)c1cccc(C2=CCN(CCc3ccc4ccccc4c3)CC2)c1 [SR-57746A, xaliproden hydrochloride], the IC50 [1] was 2.5 nM, the “A-wave Amplitude Mean” value [2, 3] was 550.5 μV and the “B-wave Amplitude Mean” value [2, 3] was 1361.1 μV. For the same compound, the “Maximum a- and b-wave response amplitudes, % of controls” value ([2]; 0.5 mg/kg, light-exposed rats) was 82%, the “A-wave Amplitude Mean” value [2, 4] was 460.8 μV and the “B-wave Amplitude Mean” value [2, 4] was 1169.4 μV. The “Maximum a- and b-wave response amplitudes, % of normal” value ([2]; 1 mg/kg, light-exposed rats) was 70%, the “Protection of retinal function” value ([2]; 0.5 and 1.0 mg/kg, light-exposed rats) was “Significant protection of retinal function” and the EC50 (5-HT1A receptors) was 3.7 nM.
